In ChEMBL document CHEMBL1201862, “PubChem BioAssay data set” (2004):
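Tested at 5 concentrations; 48 h exposure; 96-well plates; endpoints linearly interpolated, else capped at highest concentration. At the GI50, growth is halved.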 Calls of active or inactive are those of the source. Cut-off read from the data, not from the text of the source: active = GI50 up to about 1.1 µM and inactive = higher.

Columns and labels:
Test in all cases: NCI-60 cell line screen, 48 h
MOLT-4 = test system: MOLT-4
SN12C = test system: SN12C
A549 = test system: A549
OVCAR-4 = test system: OVCAR-4
SK-MEL-5 = test system: SK-MEL-5
NCI-H522 = test system: NCI-H522
CAKI-1 = test system: CAKI-1
HCC 2998 = test system: HCC 2998
RXF 393 = test system: RXF 393
MDA-MB-435 = test system: MDA-MB-435
SW-620 = test system: SW-620
HCT-15 = test system: HCT-15
SK-MEL-2 = test system: SK-MEL-2
NCI-H226 = test system: NCI-H226
IGROV-1 = test system: IGROV-1
NCI-H460 = test system: NCI-H460
NCI/ADR-RES = test system: NCI/ADR-RES
SF-539 = test system: SF-539
MDA-N = test system: MDA-N
HOP-92 = test system: HOP-92
MDA-MB-231 = test system: MDA-MB-231
HCT-116 = test system: HCT-116
SF-268 = test system: SF-268
MCF7 = test system: MCF7
SNB-19 = test system: SNB-19
LOX IMVI = test system: LOX IMVI
SNB-75 = test system: SNB-75
A498 = test system: A498
OVCAR-5 = test system: OVCAR-5
786-0 = test system: 786-0
TK-10 = test system: TK-10
HT-29 = test system: HT-29
KM12 = test system: KM12
BT-549 = test system: BT-549
SK-OV-3 = test system: SK-OV-3
M14 = test system: M14
U-251 = test system: U-251
COLO 205 = test system: COLO 205
Malme-3M = test system: Malme-3M
EKVX = test system: EKVX
PC-3 = test system: PC-3
ACHN = test system: ACHN
K562 = test system: K562
SF-295 = test system: SF-295
HOP-62 = test system: HOP-62
RPMI-8226 = test system: RPMI-8226
OVCAR-8 = test system: OVCAR-8
UACC-257 = test system: UACC-257
CCRF-CEM = test system: CCRF-CEM
UACC-62 = test system: UACC-62
Hs-578T = test system: Hs-578T
NCI-H23 = test system: NCI-H23
OVCAR-3 = test system: OVCAR-3
SK-MEL-28 = test system: SK-MEL-28
HL-60 = test system: HL-60
UO-31 = test system: UO-31
DU-145 = test system: DU-145
SR = test system: SR

For `CN1Cc2cc3cc4c(cc3nc2N(C)C1)OCCO4`, the GI50 (MOLT-4) was 64 µM (inactive), the GI50 (SN12C) was > 100 µM (inactive) and the GI50 (A549) was > 100 µM (inactive). For the same compound, the GI50 (OVCAR-4) was > 100 µM (inactive), the GI50 (SK-MEL-5) was > 100 µM (inactive) and the GI50 (NCI-H522) was > 100 µM (inactive). The GI50 (CAKI-1) was > 100 µM (inactive), the GI50 (HCC 2998) was > 100 µM (inactive) and the GI50 (RXF 393) was > 100 µM (inactive). The GI50 (MDA-MB-435) was > 100 µM (inactive), the GI50 (SW-620) was > 100 µM (inactive) and the GI50 (HCT-15) was over 100 µM. For the same compound, the GI50 (SK-MEL-2) was > 100 µM (inactive), the GI50 (NCI-H226) was > 100 µM (inactive) and the GI50 (IGROV-1) was > 100 µM (inactive). For the same compound, the GI50 (NCI-H460) was > 100 µM (inactive), the GI50 (NCI/ADR-RES) was > 100 µM (inactive) and the GI50 (SF-539) was > 100 µM (inactive). The GI50 (MDA-N) was > 100 µM (inactive), the GI50 (HOP-92) was > 100 µM (inactive) and the GI50 (MDA-MB-231) was > 100 µM (inactive). The GI50 (HCT-116) was > 100 µM (inactive), the GI50 (SF-268) was > 100 µM (inactive) and the GI50 (MCF7) was > 100 µM (inactive). For the same compound, the GI50 (SNB-19) was > 100 µM (inactive), the GI50 (LOX IMVI) was > 100 µM (inactive) and the GI50 (SNB-75) was > 100 µM (inactive). The GI50 (A498) was 68.4 µM (inactive), the GI50 (OVCAR-5) was > 100 µM (inactive) and the GI50 (786-0) was > 100 µM (inactive). For the same compound, the GI50 (TK-10) was > 100 µM (inactive), the GI50 (HT-29) was > 100 µM (inactive) and the GI50 (KM12) was > 100 µM (inactive). The GI50 (BT-549) was > 100 µM (inactive), the GI50 (SK-OV-3) was > 100 µM (inactive) and the GI50 (M14) was > 100 µM (inactive). For the same compound, the GI50 (U-251) was > 100 µM (inactive), the GI50 (COLO 205) was > 100 µM (inactive) and the GI50 (Malme-3M) was > 100 µM (inactive). The GI50 (EKVX) was > 100 µM (inactive), the GI50 (PC-3) was > 100 µM (inactive) and the GI50 (ACHN) was > 100 µM (inactive). The GI50 (K562) was > 100 µM (inactive), the GI50 (SF-295) was > 100 µM (inactive) and the GI50 (HOP-62) was > 100 µM (inactive). For the same compound, the GI50 (RPMI-8226) was 54.7 µM (inactive), the GI50 (OVCAR-8) was > 100 µM (inactive) and the GI50 (UACC-257) was > 100 µM (inactive). For the same compound, the GI50 (CCRF-CEM) was > 100 µM (inactive) and the GI50 (UACC-62) was > 100 µM (inactive).

For `CCCCCCCCCCCCCCCC(=O)OCC1CCCN2CCCCC12` (stereo not given), the GI50 (MOLT-4) was > 100 µM (inactive), the GI50 (SN12C) was > 100 µM (inactive) and the GI50 (A549) was > 100 µM (inactive). For the same compound, the GI50 (Hs-578T) was > 100 µM (inactive), the GI50 (OVCAR-4) was > 100 µM (inactive) and the GI50 (SK-MEL-5) was > 100 µM (inactive). The GI50 (CAKI-1) was > 100 µM (inactive), the GI50 (NCI-H23) was > 100 µM (inactive) and the GI50 (HCC 2998) was > 100 µM (inactive). The GI50 (RXF 393) was > 100 µM (inactive), the GI50 (MDA-MB-435) was > 100 µM (inactive) and the GI50 (OVCAR-3) was > 100 µM (inactive). For the same compound, the GI50 (SW-620) was > 100 µM (inactive), the GI50 (HCT-15) was over 100 µM and the GI50 (SK-MEL-2) was > 100 µM (inactive). The GI50 (NCI-H226) was > 100 µM (inactive), the GI50 (NCI-H460) was > 100 µM (inactive) and the GI50 (NCI/ADR-RES) was > 100 µM (inactive). The GI50 (SF-539) was > 100 µM (inactive), the GI50 (MDA-N) was > 100 µM (inactive) and the GI50 (HOP-92) was > 100 µM (inactive). For the same compound, the GI50 (SK-MEL-28) was > 100 µM (inactive), the GI50 (MDA-MB-231) was > 100 µM (inactive) and the GI50 (HCT-116) was > 100 µM (inactive). The GI50 (SF-268) was > 100 µM (inactive), the GI50 (HL-60) was > 100 µM (inactive) and the GI50 (MCF7) was > 100 µM (inactive). The GI50 (SNB-19) was > 100 µM (inactive), the GI50 (LOX IMVI) was > 100 µM (inactive) and the GI50 (SNB-75) was > 100 µM (inactive). For the same compound, the GI50 (A498) was > 100 µM (inactive), the GI50 (OVCAR-5) was > 100 µM (inactive) and the GI50 (786-0) was > 100 µM (inactive). The GI50 (TK-10) was > 100 µM (inactive), the GI50 (HT-29) was > 100 µM (inactive) and the GI50 (KM12) was > 100 µM (inactive). For the same compound, the GI50 (BT-549) was > 100 µM (inactive), the GI50 (SK-OV-3) was > 100 µM (inactive) and the GI50 (M14) was > 100 µM (inactive). The GI50 (U-251) was > 100 µM (inactive), the GI50 (COLO 205) was > 100 µM (inactive) and the GI50 (Malme-3M) was > 100 µM (inactive). The GI50 (EKVX) was > 100 µM (inactive), the GI50 (UO-31) was > 100 µM (inactive) and the GI50 (PC-3) was > 100 µM (inactive). For the same compound, the GI50 (DU-145) was > 100 µM (inactive), the GI50 (ACHN) was > 100 µM (inactive) and the GI50 (K562) was > 100 µM (inactive). For the same compound, the GI50 (SF-295) was > 100 µM (inactive), the GI50 (HOP-62) was > 100 µM (inactive) and the GI50 (RPMI-8226) was > 100 µM (inactive). The GI50 (OVCAR-8) was > 100 µM (inactive), the GI50 (UACC-257) was > 100 µM (inactive) and the GI50 (CCRF-CEM) was > 100 µM (inactive). For the same compound, the GI50 (UACC-62) was > 100 µM (inactive).

For `CC(C)=CCC/C(C)=C/CCC1(C)C2COC(=O)C21` (stereo not given), the GI50 (MOLT-4) was 30.9 µM (inactive), the GI50 (SN12C) was 77.3 µM (inactive) and the GI50 (OVCAR-4) was 42.8 µM (inactive). For the same compound, the GI50 (SK-MEL-5) was 20.7 µM (inactive), the GI50 (NCI-H522) was 53.2 µM (inactive) and the GI50 (CAKI-1) was > 100 µM (inactive). The GI50 (NCI-H23) was 51.3 µM (inactive), the GI50 (HCC 2998) was > 100 µM (inactive) and the GI50 (RXF 393) was > 100 µM (inactive). For the same compound, the GI50 (MDA-MB-435) was 65.5 µM (inactive), the GI50 (OVCAR-3) was 37 µM (inactive) and the GI50 (SW-620) was 19.3 µM (inactive). For the same compound, the GI50 (HCT-15) was 57.4 µM, the GI50 (SK-MEL-2) was 70.5 µM (inactive) and the GI50 (NCI-H226) was > 100 µM (inactive). The GI50 (IGROV-1) was > 100 µM (inactive), the GI50 (NCI-H460) was 36.2 µM (inactive) and the GI50 (MDA-N) was 54.7 µM (inactive). The GI50 (HOP-92) was 18.2 µM (inactive), the GI50 (SK-MEL-28) was 29 µM (inactive) and the GI50 (SR) was 37 µM (inactive). For the same compound, the GI50 (MDA-MB-231) was > 100 µM (inactive), the GI50 (HCT-116) was 31.9 µM (inactive) and the GI50 (SF-268) was > 100 µM (inactive). The GI50 (HL-60) was 19.8 µM (inactive), the GI50 (MCF7) was 34.8 µM (inactive) and the GI50 (SNB-19) was 82.8 µM (inactive). For the same compound, the GI50 (LOX IMVI) was 26.7 µM (inactive), the GI50 (A498) was > 100 µM (inactive) and the GI50 (OVCAR-5) was > 100 µM (inactive). The GI50 (786-0) was > 100 µM (inactive), the GI50 (TK-10) was > 100 µM (inactive) and the GI50 (HT-29) was 70.8 µM (inactive). For the same compound, the GI50 (KM12) was 34.9 µM (inactive), the GI50 (BT-549) was 49.8 µM (inactive) and the GI50 (SK-OV-3) was > 100 µM (inactive). For the same compound, the GI50 (U-251) was 66.2 µM (inactive), the GI50 (COLO 205) was 48.3 µM (inactive) and the GI50 (Malme-3M) was > 100 µM (inactive). The GI50 (EKVX) was 53.2 µM (inactive), the GI50 (UO-31) was 43.3 µM (inactive) and the GI50 (PC-3) was 44.4 µM (inactive). The GI50 (DU-145) was 60.5 µM (inactive), the GI50 (ACHN) was > 100 µM (inactive) and the GI50 (K562) was 22.6 µM (inactive). For the same compound, the GI50 (SF-295) was 77.4 µM (inactive), the GI50 (HOP-62) was > 100 µM (inactive) and the GI50 (UACC-257) was > 100 µM (inactive). For the same compound, the GI50 (CCRF-CEM) was 26.9 µM (inactive) and the GI50 (UACC-62) was > 100 µM (inactive).
